Measurements from patent US11508483B2, “Method of identifying a subgroup of patients suffering from dcSSc which benefits from a treatment with sGC stimulators and sGC activators in a higher degree than a control group” (ADVERIO PHARMA GMBH, priority 2018, dated 2022).

How the values were obtained:
[1] = tested on: human dermal fibroblasts of SSc patients; details: in vitro; cited from earlier work
[2] = tested on: TGFβ-induced skin fibrosis; details: mouse, in vivo; cited from earlier work
[3] = tested on: patients with dcSSc; assay: RISE-SSc clinical study: lung function, FVC % predicted; type: in vivo, human; details: for Difference in LSMeans with regard to FVC % predicted: Riociguat vs placebo, week 52
Text: Pulmonary physiologic measures, particularly FVC, have frequently been used as surrogate endpoints for SSc-ILD and IPF. […] Also in IPF measurable decline in FVC is correlated with mortality. […] The primary efficacy outcome measure was the change in mRSS from baseline to week 52. Key secondary efficacy measure was Combined Response Index for Systemic Sclerosis (CRISS).

[4] = tested on: patients with dcSSc; assay: RISE-SSc clinical study: modified Rodnan skin score (mRSS); type: in vivo, human; parameters: key to Difference in LSMeans with regard to mRSS: mRSS points (skin thickness score, max 51); details: for Difference in LSMeans with regard to mRSS: Riociguat vs placebo, week 52; for mean change of mRSS for Riociguat compared to placebo: baseline to week 52
Text: The modified Rodnan skin score (mRSS) is a measure of skin thickness and is used as a primary or secondary outcome measure in clinical trials of systemic sclerosis. The maximum mRSS possible is 51. Standardization of the modified Rodnan skin score for use in clinical trials of systemic sclerosis is described in Khanna, D. et al., 2017b. […] The primary efficacy outcome measure was the change in mRSS from baseline to week 52. Key secondary efficacy measure was Combined Response Index for Systemic Sclerosis (CRISS).

[5] = tested on: patients with dcSSc; assay: RISE-SSc clinical study: Health Assessment Questionnaire disability index (HAQ-DI); type: in vivo, human; details: Riociguat vs placebo, week 52
Method: The Health Assessment Questionnaire Disability Index (HAQ-DI) is a well-accepted measure of physical function for various rheumatic diseases, and it is the most widely employed and reported measure for assessing physical function in SSc. As a post hoc analysis in study 16277, the percentage of patients stratified by HAQ-DI categorized change was also performed. Clinically meaningful disease improvement was defined as a decrease in HAQ-DI of more than −0.21 from baseline to week 52; stabilization and/or disease worsening were defined as a change in HAQ-DI less than or equal to −0.21 from baseline to week 52. […] The primary efficacy outcome measure was the change in mRSS from baseline to week 52. Key secondary efficacy measure was Combined Response Index for Systemic Sclerosis (CRISS).

[6] = tested on: systemic sclerosis patients; details: cited from earlier work
[7] = subgroup FVC % predicted at baseline 50-75
[8] = subgroup FVC % predicted at baseline >75
[9] = subgroup anti-RNA polymerase III autoantibodies negative
[10] = subgroup anti-RNA polymerase III autoantibodies positive

Nc1nc(-c2nn(Cc3ccccc3F)c3ncccc23)ncc1C1CC1 [BAY 41-2272]
collagen production [1]: reduce collagen production
progression of TGFβ-induced skin fibrosis [2]: prevented the progression

COC(=O)N(C)c1c(N)nc(-c2nn(Cc3ccccc3F)c3ncccc23)nc1N [Riociguat, methyl 4,6-diamino-2-[1-(2-fluorobenzyl)-1H-pyrazolo[3,4-b]pyridin-3-yl]-5-pyrimidinyl(methyl)carbamate]
collagen production [1]: reduce collagen production
change of lung function (FVC % predicted) at week 52 compared to baseline ([3]; Riociguat group, dcSSc patients positive for anti-RNA polymerase III autoantibodies): +1.2
Difference in LSMeans with regard to FVC % predicted [3, 7]: 9.2
Difference in LSMeans with regard to FVC % predicted [3, 8]: −1.3
Difference in LSMeans with regard to FVC % predicted ([3]; subgroup ILD at baseline no): −1.7
Difference in LSMeans with regard to FVC % predicted ([3]; subgroup ILD at baseline yes): 5.1
Difference in LSMeans with regard to FVC % predicted [3, 9]: −0.9
Difference in LSMeans with regard to FVC % predicted [3, 10]: 3.5
Difference in LSMeans with regard to FVC % predicted ([3]; subgroup hsCRP >10 mg/L): 2.4
Difference in LSMeans with regard to FVC % predicted ([3]; subgroup hsCRP ≤10 mg/L): −0.5
Difference in LSMeans with regard to mRSS [4, 7]: −8.0
Difference in LSMeans with regard to mRSS [4, 8]: −1.7
Difference in LSMeans with regard to mRSS [4, 9]: 0.3
Difference in LSMeans with regard to mRSS [4, 10]: −10.5
Difference in LSMeans with regard to mRSS ([4]; subgroup hsCRP >3 mg/L): −5.8
Difference in LSMeans with regard to mRSS ([4]; subgroup hsCRP >10 mg/L): −7.5
Difference in LSMeans with regard to mRSS ([4]; subgroup hsCRP ≤3 mg/L): 1.0
Difference in LSMeans with regard to mRSS ([4]; subgroup hsCRP ≤10 mg/L): −1.2
mean change of mRSS for Riociguat compared to placebo ([4]; patients with FVC % predicted at baseline of 50-75): −7.9 units
mean change of mRSS for Riociguat compared to placebo ([4]; patients with hsCRP>10 mg/L): −7.5 units
mean change of mRSS for Riociguat compared to placebo ([4]; patients with hsCRP>3): −5.8 units
mean change of mRSS for Riociguat compared to placebo ([4]; patients ≥65 y of age): −6.7 units
Difference in LSMeans with regard to HAQ-DI [5, 7]: −0.22
Difference in LSMeans with regard to HAQ-DI [5, 8]: −0.07
Difference in LSMeans with regard to HAQ-DI [5, 9]: 0.02
Difference in LSMeans with regard to HAQ-DI [5, 10]: −0.44
Difference in LSMeans with regard to HAQ-DI ([5]; subgroup hsCRP >10 mg/L): −0.13
Difference in LSMeans with regard to HAQ-DI ([5]; subgroup hsCRP ≤10 mg/L): −0.03

Tocilizumab: monoclonal anti-IL-6 receptor-α antibody approved e.g. for the treatment of patients with rheumatoid arthritis
skin score and FVC in placebo-treated patients who transitioned to tocilizumab ([6]; open-label period): skin score improvement and FVC stabilization
influence of anti-RNA polymerase III autoantibody profile on the effect on change in mRSS or ppFVC ([6]; week 48): little clinically meaningful influence
